Here are results for five compounds from US5095013A, “2-(2-vinylpyrrolidinylthio)carbapenem derivatives” (Banyu Pharmaceutical Co., Ltd., priority 1989, dated 1992).

In brackets after ≈: the same amount, converted by molar mass. Where two headings read alike, the source gives them in different places.

The test system of series [1] is imipenem resistant Pseudomonas aeruginosa. The following applies: cited from earlier work.
Series [2] relates to DHP-I. Conditions: cited from earlier work.
Series [3] relates to β-lactamase. Conditions: cited from earlier work.
For series [4] the following is noted: cited from earlier work.
For series [5] the following is noted: due to the decomposition products; cited from earlier work.
The subject of series [6] is highly methicillin resistant Staphylococcus aureus resistant to imipenem. The following applies: cited from earlier work.
Series [7] deals with gram positive bacteria and gram negative bacteria. Conditions: cited prior art; cited from earlier work.
Series [8] deals with renal dehydropeptidase I (DHP-I). In kind it is in vitro ADME. From the text:
The DHP-I susceptivity was quantitatively analyzed by the method by Kropp et al., Antimicrob., Agents Chemother., vol. 22, p. 62-70 (1982), whereby the smaller the numerical value representing the ratio to imipenem (=1.0), the higher the stability.

Series [9] relates to DHP-I. The following applies: cited from earlier work. This is another data set of the same source.
The conditions of series [10]: in vivo; cited from earlier work.
The test system of series [11] is methicillin resistant Staphylococcus aureus. Conditions: prior art compounds; cited from earlier work.
Series [12] deals with E. cloacae Nek39. Kind of series: in vitro antibacterial activity, agar plate dilution method (MIC). In kind it is cell-based. The following applies: Enterobacter cloacae, read-out: Minimum inhibitory concentration (MIC). On the procedure: (§1) One platinum loopful of each test microorganism incubated overnight in Mueller Hinton broth, was inoculated to Mueller Hinton agar (inoculum size: 10^6 CFU/ml). Such culture media contained antibacterial agents in various concentrations. After incubation at 37° C. for 16 hours, the minimum inhibitory concentrations (MIC: μg/ml) were measured.

Series [13] concerns Ps. aeruginosa MB5000. The series is described as above. In kind it is cell-based. Conditions: Pseudomonas aeruginosa, read-out: Minimum inhibitory concentration (MIC). As for the experimental part:
as §1

In series [14] the test system is S. aureus MB4970. The description is as above. The format is cell-based. The following applies: Staphylococcus aureus, read-out: Minimum inhibitory concentration (MIC). As for the experimental part: as §1

On to `C[C@@H](O)[C@H]1C(=O)N2C(C(=O)O)=C(SCCN=CN)C[C@H]12` [Imipenem, imipenem], for which the “treating effect (in words)” value in series [1] and in [6] was “does not show adequate treating effects” in each case. In series [2], the “decomposition by DHP-I in the human kidney” value is given as “likely to be decomposed by DHP-I in the human kidney”. Further, the β-lactamase resistance entry in [3] is “has β-lactamase resistance”. Besides, in series [4] (compared with thienamycin), the “stability in the solid form or in an aqueous solution” value was “remarkably improved over thienamycin”. For the same compound, in series [5], the “toxicity against the kidney” value is on record as “presents toxicity against the kidney due to the decomposition products”. Also, the “antibacterial activities (in words)” value in series [7] is “antibacterial activities of an equal or higher level than thienamycin against various types of bacteria”. Besides, the DHP-I susceptivity in series [8] came out at 1.0.

Regarding `C[C@@H](O)[C@H]1C(=O)N2C(C(=O)O)=C(SCCN)C[C@H]12` [thienamycin], the “decomposition by DHP-I (in words)” value in series [9] (renal dehydropeptidase I, in vivo) was “likely to be decomposed by a certain enzyme in vivo such as renal dehydropeptidase I”. In series [4] (cited prior art), the “chemical stability (in words)” value is “chemically unstable”. For the same compound, the “recovery rate in the urine” value in [10] is “low”. The “antibacterial activities (in words)” value in series [7] is “strong antibacterial activities over a wide range against gram positive bacteria and gram negative bacteria”.

Consider `C[C@@H](O)[C@H]1C(=O)N2C(C(=O)O)=C(S[C@@H]3CN[C@H](C(=O)N(C)C)C3)[C@H](C)[C@H]12` [meropenem], for which, in series [11], the “antibacterial activity against highly methicillin resistant Staphylococcus aureus (in words)” value is listed as “not adequate”. The “stability against DHP-I (in words)” value in series [9] (prior art compounds) is listed as “substantially improved”.

As for `C[C@@H](O)[C@H]1C(=O)N2C(C(=O)O)=C(S[C@@H]3CN[C@H](/C=C4\CCNC4=O)C3)[C@H](C)[C@H]12` [Example 12, (1R,5S,6S)-6-[(R)-1-Hydroxyethyl]-1-methyl-2-[(2S,4S)-2[(E)-(2-oxopyrrolidin-3-ylidene)methyl]pyrrolidin-4-ylthio]-1-carbapen-2-em-3-carboxylic acid], the MIC was 0.025 µg/mL (≈ 0.0614 µM) in series [12] (E. cloacae Nek39, Mueller Hinton agar, inoculum 10^6 CFU/ml, 37° C., 16 hours); 0.39 µg/mL (≈ 0.957 µM) in [13] (Ps. aeruginosa MB5000, Mueller Hinton agar, inoculum 10^6 CFU/ml, 37° C., 16 hours); 0.025 µg/mL (≈ 0.0614 µM) in series [14] (S. aureus MB4970, Mueller Hinton agar, inoculum 10^6 CFU/ml, 37° C., 16 hours). In series [8], this compound registered a DHP-I susceptivity of 0.04.

As to `C[C@@H](O)[C@H]1C(=O)N2C(C(=O)[O-])=C(S[C@@H]3CN[C@H](/C=C/C(N)=O)C3)[C@H](C)[C@H]12.[K+]`, the MIC in [12] (NEK39, 16 h) worked out at 0.025 µg/mL; in [13] (MB5000, 16 h), 0.39 µg/mL; in [14] (MB4970, 16 h) it was 0.025 µg/mL. The compound also showed a DHP-I susceptivity in [8] of 0.2.
